Test results from US20030119800A1, “Bone anabolic compounds and methods of use” (priority 2001, published 2003).

How the values were obtained:
[1] = system: ER (lamb uterus cytosol, human ERα, human ERβ); assay: Relative binding affinity by competition with 3H E2 (FIG. 10)
Procedure: The proteins were absorbed to hydroxylapatite (HAP) and the free ligand removed by washing (Carlson et al, 1997). Results are expressed as percent specific binding. […] Symbols indicate means±SD of two separate experiments in which each point was determined in duplicate.
Statistical analysis: ANOVA was used to detect treatment effects. Specifically, in FIGS. 1-6 & 8, Dunnett's test (Kuehl et al, 2000) was used to detect differences between various treatments as compared to the vehicle control group. To detect differences in the efficacy of the various compounds shown in FIGS. 7A & B, the dose response curves were compared using tests for linear trend (Kuehl, 2002). Bonferroni's method was used to perform all pairwise comparisons of treatment groups in FIGS. 7E & F, FIGS. 11A, B, C, FIG. 12A, FIG. 13, FIGS. 14A and B and FIG. 9. Because the normality assumption was not satisfied for the data in FIGS. 3C & D and FIG. 12C, Wilcoxon's rank sum test (Steel et al, 1997) was used to perform all pairwise comparisons of treatment groups using a Bonferroni correction. In FIG. 14D, a two-way ANOVA was used to detect treatment and dose effects and tests for linear trend were subsequently employed to determine significant effects of each compound. In FIG. 10, logistic regression was used to estimate EC50, which was then used to determine the relative binding affinity. […]

ERα = target: T1, ERα (Homo sapiens, UniProt P03372); assay: SRE-SEAP and AP-1-SEAP reporter assays in HeLa cells transfected with ERα; type: cell-based; conditions: steroids 10^−8 M for 15 minutes (E2 as little as five minutes), SEAP six hours later
T1 construct: HeLa cells transfected with the full length ERα; expressed in transfected cells; host or cells: HeLa
T1 sequence (P03372 whole entry): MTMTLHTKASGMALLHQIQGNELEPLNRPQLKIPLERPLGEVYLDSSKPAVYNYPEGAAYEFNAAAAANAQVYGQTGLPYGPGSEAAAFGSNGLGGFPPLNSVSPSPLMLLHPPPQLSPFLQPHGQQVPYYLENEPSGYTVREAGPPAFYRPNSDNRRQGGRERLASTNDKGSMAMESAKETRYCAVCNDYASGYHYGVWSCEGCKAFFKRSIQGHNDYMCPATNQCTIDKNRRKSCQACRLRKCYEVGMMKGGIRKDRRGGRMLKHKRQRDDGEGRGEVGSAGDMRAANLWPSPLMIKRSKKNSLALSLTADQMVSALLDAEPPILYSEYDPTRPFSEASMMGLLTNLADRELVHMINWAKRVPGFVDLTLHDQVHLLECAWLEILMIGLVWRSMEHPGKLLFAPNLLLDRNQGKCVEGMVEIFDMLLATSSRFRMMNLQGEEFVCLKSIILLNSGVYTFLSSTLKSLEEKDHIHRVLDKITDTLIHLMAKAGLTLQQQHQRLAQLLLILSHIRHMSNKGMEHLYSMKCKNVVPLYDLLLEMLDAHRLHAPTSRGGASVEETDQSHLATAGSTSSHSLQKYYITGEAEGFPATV
Procedure: HeLa cells were co-transfected with reporter constructs in which SRE or AP-1 drive the expression of secreted alkaline phosphatase (SEAP), along with the wild type ERα (A and B); or its ligand binding domain (E), or E fused to a membrane (E-Mem) or nuclear (E-Nuc) localization sequence (A). A dominant negaitve (dn) MEK or dn Jnk were also introduced into a subset of the ERα transfected cells. Cells were exposed to vehicle or the indicated steroids (10^−8M) for 15 minutes. The steroid containing media were then removed, the cells were washed twice, and the cultures were continued in fresh medium without steroids. Supernatants were collected six hours later and SEAP activity was assayed. In FIGS. 1A and 1B, 100% indicates activity in vehicle treated cells. (C) HeLa cells were co-transfected with the ERα and nEGFP and wild type or dn mutants of the indicated transcription factors. […] (D) HeLa cells (upper panel) were transiently co-transfected with the ERα, a nonphosphorylatable dn mutant of Bad. […] Cells were then treated as in (C).
Transient transfections and reporter assays: HeLa cells were transfected using Lipofectamine Plus (Life Technologies Inc.). For reporter assays (luciferase or secreated alkaline phosphatase SEAP), serum-starved cells were treated with the indicated steroids for 15 min after which the steroid-containing media were removed, cells washed twice with 1% BSA in PBS, and fresh media without steroid were added. SEAP or luciferase assays were performed 6 h later using the Great EscAPe SEAP Chemiluminescence Kit (Clontech, Palo Alto, Calif.) or the dual luciferase Kit (Promega, Madison, Wis.), respectively, according to the manufacturer's instructions. Both reporter activities were normalized to renilla luciferase activity.

C[C@]12CC[C@H]3[C@@H](CCC4=C[C@H](O)CC[C@@H]43)[C@@H]1CC[C@@H]2O [4-estren-3α,17β-diol]
binding affinity for the ER compared to E2 [1]: lower binding affinity | AP-1-dependent transcriptional activity (AP-1-SEAP) (ERα): downregulation of AP-1 | SRE-dependent transcriptional activity (SRE-SEAP) (ERα): Stimulation of SRE
